Laboratory results reported in patent publication US20040030161A1, “Recovery and purification of anhydro sugar alcohols from a vapor stream” (priority 2002, published 2004).

Format: physicochemical
Description: The basis for this process is illustrated for isosorbide in FIG. 1, where the upper curve represents the solubility of isosorbide in water (as percent by weight isosorbide) on the x-axis vs. temperature on the y-axis. The lower curve represents the composition of the condensate (as percent by weight isosorbide) when the condensation is conducted at a pressure of about 14 mm Hg. […] The condensate is a highly concentrated solution of isosorbide and contains only a small fraction as water. Thus, by conducting the condensation under these conditions, most of the isosorbide from, for example, a 20-30 weight percent isosorbide aqueous vapor stream is recovered, leaving most of the water in the vapor phase. The amount of isosorbide left in the vapor is negligibly small because of the very low vapor pressure of isosorbide, on the order of only about 0.001 mm Hg, at a condensation temperature of about 45° C.

- solubility of isosorbide in water (percent by weight isosorbide): ~100%
SMILES: O[C@@H]1CO[C@H]2[C@@H]1OC[C@@H]2O [isosorbide, 1,4:3,6-dianhydrosorbitol]
